Data from the supplement of paper PMC10307832.

Tests used:
Assay in all cases: relative viability (nuclei count vs DMSO), 5 days (fraction); higher = more cells survive
Bortezomib + Pictilisib = compound: CC(C)C[C@H](NC(=O)[C@H](Cc1ccccc1)NC(=O)c1cnccn1)B(O)O [Bortezomib] + CS(=O)(=O)N1CCN(Cc2cc3nc(-c4cccc5[nH]ncc45)nc(N4CCOCC4)c3s2)CC1 [Pictilisib] (partner 1 µM)
Outline: (§1)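 For relative viability, nuclei counts in treated wells were divided by those in vehicle wells. Lung cancer cell lines had been pin-tool dosed in 1536-well plates the day after seeding and cultured for 5 days, then fixed and stained in one step (final 0.05% Triton X-100, 1% formaldehyde, 1 ug/ml Hoechst) and imaged at 4×. Doses were one drug alone or a fixed anchor-drug dose plus five library-drug doses (not always all listed) in √10 steps, and values are duplicate-plate medians.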

[1] = compound: CC1=CC(=NN1)NC2=CC(=NC(=N2)/C=C/C3=CC=CC=C3)N4CCN(CC4)C + Nc1ncn([C@H]2C[C@H](O)[C@@H](CO)O2)c(=O)n1 [Decitabine] (partner 2 µM)
Outline: as §1

Obatoclax + Pictilisib = compound: COC1=CC(c2cc3ccccc3[nH]2)=N/C1=C\c1[nH]c(C)cc1C [Obatoclax] + CS(=O)(=O)N1CCN(Cc2cc3nc(-c4cccc5[nH]ncc45)nc(N4CCOCC4)c3s2)CC1 [Pictilisib] (partner 1 µM)
Outline: as §1

Obatoclax + Pemetrexed = compound: COC1=CC(c2cc3ccccc3[nH]2)=N/C1=C\c1[nH]c(C)cc1C [Obatoclax] + Nc1nc2[nH]cc(CCc3ccc(C(=O)N[C@@H](CCC(=O)O)C(=O)O)cc3)c2c(=O)[nH]1 [Pemetrexed] (partner 0.2 µM)
Outline: as §1

COR-L 105
relative viability (Bortezomib + Pictilisib; first compound 0.0002 µM): 0.377 | relative viability (Bortezomib + Pictilisib; first compound 0.000632 µM): 0.324 | relative viability (Bortezomib + Pictilisib; first compound 0.002 µM): 0.389 | relative viability (Bortezomib + Pictilisib; first compound 0.006325 µM): 0.322 | relative viability (Bortezomib + Pictilisib; first compound 0.02 µM): 0.326 | relative viability ([1]; first compound 0.08 µM): 0.549 | relative viability ([1]; first compound 0.253 µM): 0.847 | relative viability ([1]; first compound 0.8 µM): 0.624 | relative viability ([1]; first compound 2.53 µM): 0.425 | relative viability ([1]; first compound 8 µM): 0.235 | relative viability (Obatoclax + Pictilisib; first compound 0.01 µM): 0.407 | relative viability (Obatoclax + Pictilisib; first compound 0.03162 µM): 0.47 | relative viability (Obatoclax + Pictilisib; first compound 0.1 µM): 0.495 | relative viability (Obatoclax + Pictilisib; first compound 0.3162 µM): 0.328 | relative viability (Obatoclax + Pictilisib; first compound 1 µM): 0.286 | relative viability (Obatoclax + Pemetrexed; first compound 0.01 µM): 1.13 | relative viability (Obatoclax + Pemetrexed; first compound 0.03162 µM): 1.01 | relative viability (Obatoclax + Pemetrexed; first compound 0.1 µM): 1.15 | relative viability (Obatoclax + Pemetrexed; first compound 0.3162 µM): 1.27 | relative viability (Obatoclax + Pemetrexed; first compound 1 µM): 0.584

Calu-6
relative viability (Bortezomib + Pictilisib; first compound 0.0002 µM): 0.829 | relative viability (Bortezomib + Pictilisib; first compound 0.000632 µM): 0.925 | relative viability (Bortezomib + Pictilisib; first compound 0.002 µM): 0.726 | relative viability (Bortezomib + Pictilisib; first compound 0.006325 µM): 0.102 | relative viability (Bortezomib + Pictilisib; first compound 0.02 µM): 0.0777 | relative viability (Obatoclax + Pictilisib; first compound 0.01 µM): 0.91 | relative viability (Obatoclax + Pictilisib; first compound 0.03162 µM): 0.963 | relative viability (Obatoclax + Pictilisib; first compound 0.1 µM): 0.731 | relative viability (Obatoclax + Pictilisib; first compound 0.3162 µM): 0.491 | relative viability (Obatoclax + Pictilisib; first compound 1 µM): 0.105

ChaGo-K-1
relative viability (Bortezomib + Pictilisib; first compound 0.002 µM): 0.707 | relative viability (Bortezomib + Pictilisib; first compound 0.006325 µM): 0.29 | relative viability (Bortezomib + Pictilisib; first compound 0.02 µM): 0.207 | relative viability ([1]; first compound 0.08 µM): 0.509 | relative viability ([1]; first compound 0.253 µM): 0.587 | relative viability ([1]; first compound 0.8 µM): 0.465 | relative viability ([1]; first compound 2.53 µM): 0.383 | relative viability ([1]; first compound 8 µM): 0.21 | relative viability (Obatoclax + Pictilisib; first compound 0.01 µM): 0.77 | relative viability (Obatoclax + Pictilisib; first compound 0.03162 µM): 0.504 | relative viability (Obatoclax + Pictilisib; first compound 0.3162 µM): 0.675 | relative viability (Obatoclax + Pictilisib; first compound 1 µM): 0.877 | relative viability (Obatoclax + Pemetrexed; first compound 0.01 µM): 0.243 | relative viability (Obatoclax + Pemetrexed; first compound 0.03162 µM): 0.252 | relative viability (Obatoclax + Pemetrexed; first compound 0.1 µM): 0.261 | relative viability (Obatoclax + Pemetrexed; first compound 0.3162 µM): 0.265 | relative viability (Obatoclax + Pemetrexed; first compound 1 µM): 0.274

EBC-1
relative viability (Bortezomib + Pictilisib; first compound 0.0002 µM): 0.415 | relative viability (Bortezomib + Pictilisib; first compound 0.000632 µM): 0.408 | relative viability (Bortezomib + Pictilisib; first compound 0.002 µM): 0.177 | relative viability (Bortezomib + Pictilisib; first compound 0.006325 µM): 0.0912 | relative viability (Bortezomib + Pictilisib; first compound 0.02 µM): 0.0987 | relative viability (Obatoclax + Pictilisib; first compound 0.01 µM): 0.376 | relative viability (Obatoclax + Pictilisib; first compound 0.03162 µM): 0.284 | relative viability (Obatoclax + Pictilisib; first compound 0.1 µM): 0.257 | relative viability (Obatoclax + Pictilisib; first compound 0.3162 µM): 0.214 | relative viability (Obatoclax + Pictilisib; first compound 1 µM): 0.177

EKVX
relative viability (Bortezomib + Pictilisib; first compound 0.0002 µM): 0.429 | relative viability (Bortezomib + Pictilisib; first compound 0.000632 µM): 0.426 | relative viability (Bortezomib + Pictilisib; first compound 0.002 µM): 0.463 | relative viability (Bortezomib + Pictilisib; first compound 0.006325 µM): 0.33 | relative viability (Bortezomib + Pictilisib; first compound 0.02 µM): 0.0746 | relative viability ([1]; first compound 0.08 µM): 0.299 | relative viability ([1]; first compound 0.253 µM): 0.297 | relative viability ([1]; first compound 0.8 µM): 0.374 | relative viability ([1]; first compound 2.53 µM): 0.331 | relative viability ([1]; first compound 8 µM): 0.152 | relative viability (Obatoclax + Pictilisib; first compound 0.01 µM): 0.426 | relative viability (Obatoclax + Pictilisib; first compound 0.03162 µM): 0.427 | relative viability (Obatoclax + Pictilisib; first compound 0.1 µM): 0.507 | relative viability (Obatoclax + Pictilisib; first compound 0.3162 µM): 0.41 | relative viability (Obatoclax + Pictilisib; first compound 1 µM): 0.355 | relative viability (Obatoclax + Pemetrexed; first compound 0.01 µM): 0.397 | relative viability (Obatoclax + Pemetrexed; first compound 0.1 µM): 0.358 | relative viability (Obatoclax + Pemetrexed; first compound 0.3162 µM): 0.372 | relative viability (Obatoclax + Pemetrexed; first compound 1 µM): 0.436

EMC-BAC-2
relative viability (Bortezomib + Pictilisib; first compound 0.0002 µM): 0.523 | relative viability (Bortezomib + Pictilisib; first compound 0.000632 µM): 0.504 | relative viability (Bortezomib + Pictilisib; first compound 0.002 µM): 0.544 | relative viability (Bortezomib + Pictilisib; first compound 0.006325 µM): 0.476 | relative viability (Bortezomib + Pictilisib; first compound 0.02 µM): 0.158 | relative viability ([1]; first compound 0.08 µM): 0.989 | relative viability ([1]; first compound 0.253 µM): 0.91 | relative viability ([1]; first compound 0.8 µM): 0.946 | relative viability ([1]; first compound 2.53 µM): 0.689 | relative viability ([1]; first compound 8 µM): 0.282 | relative viability (Obatoclax + Pictilisib; first compound 0.01 µM): 0.539 | relative viability (Obatoclax + Pictilisib; first compound 0.03162 µM): 0.559 | relative viability (Obatoclax + Pictilisib; first compound 0.1 µM): 0.521 | relative viability (Obatoclax + Pictilisib; first compound 0.3162 µM): 0.522 | relative viability (Obatoclax + Pictilisib; first compound 1 µM): 0.51 | relative viability (Obatoclax + Pemetrexed; first compound 0.01 µM): 0.42 | relative viability (Obatoclax + Pemetrexed; first compound 0.03162 µM): 0.47 | relative viability (Obatoclax + Pemetrexed; first compound 0.1 µM): 0.395 | relative viability (Obatoclax + Pemetrexed; first compound 0.3162 µM): 0.452 | relative viability (Obatoclax + Pemetrexed; first compound 1 µM): 0.419

EPLC-272H
relative viability (Bortezomib + Pictilisib; first compound 0.002 µM): 0.3 | relative viability (Bortezomib + Pictilisib; first compound 0.006325 µM): 0.242 | relative viability (Bortezomib + Pictilisib; first compound 0.02 µM): 0.15 | relative viability ([1]; first compound 0.08 µM): 0.345 | relative viability ([1]; first compound 0.253 µM): 0.373 | relative viability ([1]; first compound 0.8 µM): 0.36 | relative viability ([1]; first compound 2.53 µM): 0.245 | relative viability ([1]; first compound 8 µM): 0.163 | relative viability (Obatoclax + Pictilisib; first compound 0.01 µM): 0.338 | relative viability (Obatoclax + Pictilisib; first compound 0.03162 µM): 0.324 | relative viability (Obatoclax + Pictilisib; first compound 0.1 µM): 0.315 | relative viability (Obatoclax + Pictilisib; first compound 0.3162 µM): 0.273 | relative viability (Obatoclax + Pictilisib; first compound 1 µM): 0.343 | relative viability (Obatoclax + Pemetrexed; first compound 0.01 µM): 0.324 | relative viability (Obatoclax + Pemetrexed; first compound 0.03162 µM): 0.387 | relative viability (Obatoclax + Pemetrexed; first compound 0.1 µM): 0.422 | relative viability (Obatoclax + Pemetrexed; first compound 0.3162 µM): 0.327 | relative viability (Obatoclax + Pemetrexed; first compound 1 µM): 0.263

H3255
relative viability (Bortezomib + Pictilisib; first compound 0.0002 µM): 0.58 | relative viability (Bortezomib + Pictilisib; first compound 0.000632 µM): 0.482 | relative viability (Bortezomib + Pictilisib; first compound 0.002 µM): 0.406 | relative viability (Bortezomib + Pictilisib; first compound 0.006325 µM): 0.192 | relative viability (Bortezomib + Pictilisib; first compound 0.02 µM): 0.142 | relative viability ([1]; first compound 0.08 µM): 0.52 | relative viability ([1]; first compound 0.253 µM): 0.54 | relative viability ([1]; first compound 0.8 µM): 0.496 | relative viability ([1]; first compound 2.53 µM): 0.499 | relative viability ([1]; first compound 8 µM): 0.249 | relative viability (Obatoclax + Pictilisib; first compound 0.01 µM): 0.476 | relative viability (Obatoclax + Pictilisib; first compound 0.03162 µM): 0.491 | relative viability (Obatoclax + Pictilisib; first compound 0.1 µM): 0.572 | relative viability (Obatoclax + Pictilisib; first compound 0.3162 µM): 0.456 | relative viability (Obatoclax + Pictilisib; first compound 1 µM): 0.434 | relative viability (Obatoclax + Pemetrexed; first compound 0.01 µM): 0.54 | relative viability (Obatoclax + Pemetrexed; first compound 0.03162 µM): 0.51 | relative viability (Obatoclax + Pemetrexed; first compound 0.1 µM): 0.498 | relative viability (Obatoclax + Pemetrexed; first compound 0.3162 µM): 0.471 | relative viability (Obatoclax + Pemetrexed; first compound 1 µM): 0.597
